Results on five compounds are retold here after US6329400A, “Formamide compounds as therapeutic agents” (Glaxo Wellcome Inc., priority 1998, dated 2001).

Assay [1] has as its system TNFα release from MonoMac 6 cells. The assay can be described thus: Cell-Based TNFα Release Inhibition Protocol. The following applies: Homo sapiens, MONO-MAC-6; LPS/PMA-stimulated MonoMac 6 cells, 37° C., 2 hours. The method, then: C. Cell-Based TNFα Release Inhibition Protocol
This solution is then diluted 1:1000 (40 ng/mL and 120 ng/mL) for use later in the assay. Compounds (10 mM) are serially diluted 1:3 in DMSO. Compound dilutions (20 μL) are added to a sterile round bottom 96 well plate (20 μL:200 μL total volume=1:10 for final concentrations of 50 μM for test compounds). MonoMac 6 cell suspension (130 μL, 1.5×10^6 cells/mL) is then added to each well resulting in 2×10^5 cells/well. LPS/PMA (50 μL) solution is then added to each well to begin stimulation (final concentrations of 10 ng/mL and 30 ng/mL respectively). The plate is incubated at 37° C. for 2 hours then spun at 1,500 rpm for 3 minutes to pellet cells. The supernatant (120 μL/well) is removed to a new round bottom 96 well plate and diluted 1:10 in PBS. Then, 20 μL of the supernatant is transferred to a Cistron TNFα ELISA plate and processed according to the manufacturer's instructions to quantitate levels of TNFα. Percent inhibition of TNFα release is calculated at each inhibitor concentration and the data were plotted using standard curve fitting programs. IC50 values were determined from these curves.

For assay [2], the target named is T1, 19 kD truncated collagenase-1 (MMP-1) (Homo sapiens, UniProt P03956).
T1 construct: 19 kD truncated collagenase-1 (MMP-1)
T1 sequence (P03956 101-269 limits assumed): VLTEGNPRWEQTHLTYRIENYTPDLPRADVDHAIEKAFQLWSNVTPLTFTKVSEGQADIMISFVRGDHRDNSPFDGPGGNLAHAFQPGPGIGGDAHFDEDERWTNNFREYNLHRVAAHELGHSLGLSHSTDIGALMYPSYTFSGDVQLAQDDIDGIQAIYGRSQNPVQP
The assay can be described thus: Matrix Metalloprotease Inhibition Protocol, collagenase-1. The class given is biochemical. Conditions: fluorogenic substrate, pH 7.6; IC50 equivalent to Ki at [S]<<Km. The method, then:
(§1) A. Matrix Metalloprotease Inhibition Protocol
(§2) Assays are conducted in a total volume of 0.180 mL assay buffer (200 mM NaCl, 50 mM Tris, 5 mM CaCl2, 10 μM ZnSO4, 0.005% Brij 35, pH 7.6) in each well of a black 96 well microtiter plate. 19 kD collagenase-1, 20 kD collagenase-3, stromelysin-1,and 50 kD gelatinase B concentrations are adjusted to 500 pM, 30 pM, 5 nM, and 100 pM, respectively. A dose response is generated using an eleven-point, 3-fold serial dilution with initial starting test compound concentrations of 100, 10, or 1 μM. Inhibitor and enzyme reactions are incubated for 30 minutes at ambient temperature and then initiated with 10 μM fluorogenic substrate (above). The product formation is measured at Excitation343 /Emission450 nm after 45-180 minutes using a Fluostar SLT fluorescence analyzer. Percent inhibition is calculated at each inhibitor concentration and the data were plotted using standard curve fitting programs. IC50 values were determined from these curves. Assays were run at low substrate concentration ([S]<<Km) such that the calculated IC50 values are equivalent to Ki within experimental error.

In another assay the target is T2, TNFα converting enzyme (Homo sapiens, UniProt P78536).
T2 construct: Membrane preparation from MonoMac 6 cells; endogenous in cells; host or cells: MonoMac 6 cells (membrane preparation, subfractionated extract)
The assay can be described thus: TNFα Converting Enzyme Inhibition Protocol. In kind it is biochemical. Conditions: cell-free, MonoMac 6 membrane preparation; IC50 equivalent to Ki at [S]<<Km. On the procedure: B. TNFα Converting Enzyme Inhibition Protocol
The reaction is quenched by addition of streptavidin SPA beads (Amersham RPNQ0006), with excess binding capacity relative to substrate, suspended in 250 mM EDTA, pH 8.0. Binding is complete within 15 minutes and plates are counted in a Wallac 1450 Microbeta liquid scintillation counter. Percent inhibition is calculated at each inhibitor concentration and the data were plotted using standard curve fitting programs. IC50 values were determined from these curves.

Another assay has as its target stromelysin-1 (MMP-3) (Homo sapiens, UniProt P08254). As to the kind of experiment: Matrix Metalloprotease Inhibition Protocol, stromelysin-1. The class given is biochemical. The following applies: fluorogenic substrate, pH 7.6; IC50 equivalent to Ki at [S]<<Km. On the procedure: as §1, §2
Assay [3] has as its target 50 kD truncated gelatinase B (MMP-9). The assay can be described thus: Matrix Metalloprotease Inhibition Protocol, gelatinase B. The class given is biochemical. Conditions: fluorogenic substrate, pH 7.6; IC50 equivalent to Ki at [S]<<Km. The method, then: as §1
as §2, with “curves.” for “curves. Assays were run at low substrate concentration ([S]<<Km) such that the calculated IC50 values are equivalent to Ki within experimental error.”

The target in assay [4] is 20 kD truncated collagenase-3 (MMP-13). As to the kind of experiment: Matrix Metalloprotease Inhibition Protocol, collagenase-3. In kind it is biochemical. Conditions: fluorogenic substrate, pH 7.6; IC50 equivalent to Ki at [S]<<Km. On the procedure: as §1
as §2, with “curves.” for “curves. Assays were run at low substrate concentration ([S]<<Km) such that the calculated IC50 values are equivalent to Ki within experimental error.”

The test system of another assay is serum TNFα. The assay can be described thus: Murine LPS-Stimulated Serum TNF Inhibition Protocol. The class given is in vivo. Conditions: 40 mg/kg, 10 min prior to LPS, mice, 90 min after LPS. On the procedure:
Murine LPS--Stimulated Serum TNF Inhibition Protocol
The potency of compounds of the invention as inhibitors of serum TNFα elevation in mice treated with lipopolysaccharide (LPS) is determined as follows; a) for subcutaneous (s.c.) administration, test compound is dissolved in DMSO and added to a mixture of 0.9% sodium chloride solution and 30% Trappsol HPB-20 (Cyclodextrin Technology Development Inc., Gainesville, Fla. USA) for a final DMSO concentration of 1%. The dosing solution is sonicated briefly and 0.2 mL is injected subcutaneously 10 min prior to LPS injection, b) for per oral (p.o.) administration, test compounds are formulated in 0.2 mL of PBS and 0.1% Tween 80 and given orally via gavage 10 min prior to LPS administration.
C3/hen female mice are injected intraperitoneally with 200 μg/kg LPS (Escherichia coli, Serotype 0111:B4, Sigma Chemical Co, St. Louis, Mo.) in PBS and sacrificed 90 min later by CO2 asphyxiation. Blood is immediately taken from the caudal vena cava and plasma prepared and frozen at -80° C. Plasma concentrations of TNF are measured by ELISA (Genzyme Co., Cambridge Mass.).

T2 sequence (P78536 215-824): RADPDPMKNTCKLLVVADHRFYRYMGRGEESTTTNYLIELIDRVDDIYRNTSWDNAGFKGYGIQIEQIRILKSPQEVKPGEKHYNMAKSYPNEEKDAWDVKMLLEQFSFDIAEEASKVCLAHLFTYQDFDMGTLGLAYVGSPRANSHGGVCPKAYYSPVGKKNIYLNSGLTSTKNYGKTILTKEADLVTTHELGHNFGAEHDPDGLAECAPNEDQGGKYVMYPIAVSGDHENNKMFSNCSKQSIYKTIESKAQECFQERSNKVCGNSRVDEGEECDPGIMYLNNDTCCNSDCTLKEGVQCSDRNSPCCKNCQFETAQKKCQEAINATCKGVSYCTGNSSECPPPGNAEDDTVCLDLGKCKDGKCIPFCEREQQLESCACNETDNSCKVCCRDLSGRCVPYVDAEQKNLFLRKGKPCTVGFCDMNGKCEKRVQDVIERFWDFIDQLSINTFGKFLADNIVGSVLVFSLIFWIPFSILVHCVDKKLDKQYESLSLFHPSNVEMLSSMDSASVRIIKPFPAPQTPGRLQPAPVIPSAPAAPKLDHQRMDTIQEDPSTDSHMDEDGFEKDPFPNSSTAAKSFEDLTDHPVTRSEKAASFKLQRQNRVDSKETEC
Sequence of stromelysin-1 (MMP-3) (P08254 100-477): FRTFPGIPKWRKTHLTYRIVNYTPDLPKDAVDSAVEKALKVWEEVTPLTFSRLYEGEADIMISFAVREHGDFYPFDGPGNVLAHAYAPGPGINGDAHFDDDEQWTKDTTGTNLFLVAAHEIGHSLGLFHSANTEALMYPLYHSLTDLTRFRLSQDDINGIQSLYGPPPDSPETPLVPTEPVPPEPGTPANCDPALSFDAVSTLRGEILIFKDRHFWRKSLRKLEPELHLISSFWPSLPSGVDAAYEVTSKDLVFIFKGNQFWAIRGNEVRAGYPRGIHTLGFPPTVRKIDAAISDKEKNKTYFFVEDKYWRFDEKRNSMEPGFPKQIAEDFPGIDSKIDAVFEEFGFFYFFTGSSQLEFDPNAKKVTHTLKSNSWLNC

On to `CCC[C@@H]([C@H](COCc1ccccc1)C(=O)N[C@@H](CCCCNC(=O)OCc1ccccc1)C(=O)Nc1nccs1)N(O)C=O` [Example 6, (2R,3S)-3-(Formyl-hydroxyamino)-2-(benzyloxymethyl)hexanoic Acid [(1S)-5-Benzyloxycarbonylamino-1-(1,3-thiazol-2-ylcarbamoyl)-1-pentyl]amide], for which, in assay [1], the IC50 is over 1000 nM. For the same compound, the Ki in assay [2] is over 1000 nM; on TNFα converting enzyme, under 100 nM; at stromelysin-1 (MMP-3), 100 to 500 nM; in assay [3], over 1000 nM; in assay [4], 100 to 500 nM.

In assay [1], `CCC[C@@H]([C@@H](CC(C)Cc1ccccc1)C(=O)N[C@H](C(=O)Nc1nccs1)C(C)(C)SCCNC(=O)OCc1ccccc1)N(O)C=O` (stereo partly drawn) [Example 7, (2R,3S)-3-(Formyl-hydroxyamino)-2-(3-phenyl-2-methyl-1-propyl)hexanoic Acid [(1R)-2-Methyl-2-(2-benzyloxycarbonylamino-1-ethylsulfanyl)-1-(1,3-thiazol-2-ylcarbamoyl)-1-propyl]-amide] yielded an IC50 of over 1000 nM. Moreover, the Ki in assay [2] is over 1000 nM; at TNFα converting enzyme it was 100 to 500 nM; at stromelysin-1 (MMP-3), over 1000 nM; in assay [3] it was over 1000 nM; in assay [4] it was 500 to 1000 nM.

In assay [1], `CCC[C@@H]([C@@H](CC(C)Cc1ccccc1)C(=O)N[C@H](C(=O)Nc1nccs1)C(C)(C)C)N(O)C=O` (stereo partly drawn) [Example 8, (2R,3S)-3-(Formyl-hydroxyamino)-2-(3-phenyl-2-methyl-1-propyl)hexanoic Acid [(1S)-2,2-Dimethyl-1-(1,3-thiazol-2-ylcarbamoyl)-propyl]amide] had an IC50 of over 1000 nM. For the same compound, the Ki is over 1000 nM in assay [2]; under 100 nM on TNFα converting enzyme; over 1000 nM at stromelysin-1 (MMP-3); over 1000 nM in assay [3]; 100 to 500 nM in assay [4].

For the compound `CCC[C@@H]([C@@H](Cc1ccc(C)s1)C(=O)N[C@H](C(=O)Nc1nccs1)[C@@H](C)OCc1ccccn1)N(O)C=O` [Example 146, (2R,3S)-3-(Formyl-hydroxyamino)-2-(5-methyl-2-thiophenemethyl)hexanoic Acid [(1S,2R)-2-(2-Pyridylmethoxy)-1-(1,3-thiazol-2-ylcarbamoyl)-1-propyl]amide], the “Percentage Inhibition of Serum TNFα” value in the assay on serum TNFα (s.c.) is reported as “++ (50%-75%)”.

As for `CC(C)(C)[C@H](NC(=O)[C@H](CCCc1ccccc1)[C@H](CCC(F)(F)F)N(O)C=O)C(=O)Nc1nccs1` [Example 183, (2R,3S)-3-(Formyl-hydroxyamino)-2-(3-phenyl-1-propyl)-6,6,6-trifluorohexanoic Acid [(1S)-2,2-Dimethyl-1-(1,3-thiazol-2-ylcarbamoyl)-1-propyl]amide], the Ki in assay [2] is over 1000 nM; at TNFα converting enzyme, 100 to 500 nM; on stromelysin-1 (MMP-3), 100 to 500 nM; in assay [3], under 100 nM; in assay [4] it was under 100 nM. The “Percentage Inhibition of Serum TNFα” value in the assay with serum TNFα (p.o.) was “++ (50%-75%)”.
